{"source": "ChEMBL document CHEMBL1201862", "about": "“PubChem BioAssay data set” (2004)", "assay_in_all_cases": "inhibition of tumour cell growth, NCI panel, 48 h", "key": {"[1]": {"test_system": "NCI-H226"}, "[2]": {"test_system": "HT-29"}, "[3]": {"test_system": "EKVX"}, "[4]": {"test_system": "MDA-MB-435"}, "[5]": {"test_system": "SW-620"}, "[6]": {"test_system": "SNB-75"}, "[7]": {"test_system": "OVCAR-8"}, "[8]": {"test_system": "SF-539"}, "[9]": {"test_system": "NCI-H460"}, "[10]": {"test_system": "K562"}, "[11]": {"test_system": "HCC 2998"}, "[12]": {"test_system": "RPMI-8226"}, "[13]": {"test_system": "SK-MEL-2"}, "[14]": {"test_system": "HCT-15"}, "[15]": {"test_system": "SK-MEL-5"}, "[16]": {"test_system": "HCT-116"}, "[17]": {"test_system": "OVCAR-5"}, "[18]": {"test_system": "NCI-H23"}, "[19]": {"test_system": "LOX IMVI"}, "[20]": {"test_system": "IGROV-1"}}, "note": "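Cultured in 96-well plates, cells were exposed to test compound for 48 hours across five concentrations. The concentration for 50% growth inhibition is given as GI50.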 Activity calls are given as the source filed them. Cut-off read from the data, not from the text of the source: active = GI50 up to about 1.1 µM and inactive = higher.", "data": [{"smiles": "CC(C)(C)c1cc(C(C)(C)C)c(P=C(Cl)Cl)c(C(C)(C)C)c1", "note": "(stereo not given)", "values": [{"measurement": "GI50", "setting": "[1]", "value": "> 100 µM (inactive)"}, {"measurement": "GI50", "setting": "[2]", "value": "> 100 µM (inactive)"}, {"measurement": "GI50", "setting": "[3]", "value": "> 100 µM (inactive)"}, {"measurement": "GI50", "setting": "[4]", "value": "> 100 µM (inactive)"}, {"measurement": "GI50", "setting": "[5]", "value": "> 100 µM (inactive)"}, {"measurement": "GI50", "setting": "[6]", "value": "> 100 µM (inactive)"}, {"measurement": "GI50", "setting": "[7]", "value": "> 100 µM (inactive)"}, {"measurement": "GI50", "setting": "[8]", "value": "> 100 µM (inactive)"}, {"measurement": "GI50", "setting": "[9]", "value": "> 100 µM (inactive)"}, {"measurement": "GI50", "setting": "[10]", "value": "0.0478 µM (active)"}, {"measurement": "GI50", "setting": "[11]", "value": "> 100 µM (inactive)"}, {"measurement": "GI50", "setting": "[12]", "value": "> 100 µM (inactive)"}, {"measurement": "GI50", "setting": "[13]", "value": "> 100 µM (inactive)"}, {"measurement": "GI50", "setting": "[14]", "value": "> 100", "unit": "µM"}, {"measurement": "GI50", "setting": "[15]", "value": "> 100 µM (inactive)"}, {"measurement": "GI50", "setting": "[16]", "value": "> 100 µM (inactive)"}, {"measurement": "GI50", "setting": "[17]", "value": "> 100 µM (inactive)"}, {"measurement": "GI50", "setting": "[18]", "value": "> 100 µM (inactive)"}, {"measurement": "GI50", "setting": "[19]", "value": "> 100 µM (inactive)"}, {"measurement": "GI50", "setting": "[20]", "value": "> 100 µM (inactive)"}]}, {"smiles": "O=S1(=O)C(c2ccccc2)=C(O)c2ccccc21", "values": [{"measurement": "GI50", "setting": "[1]", "value": "> 100 µM (inactive)"}, {"measurement": "GI50", "setting": "[2]", "value": "> 100 µM (inactive)"}, {"measurement": "GI50", "setting": "[3]", "value": "> 100 µM (inactive)"}, {"measurement": "GI50", "setting": "[4]", "value": "> 100 µM (inactive)"}, {"measurement": "GI50", "setting": "[5]", "value": "> 100 µM (inactive)"}, {"measurement": "GI50", "setting": "[6]", "value": "> 100 µM (inactive)"}, {"measurement": "GI50", "setting": "[7]", "value": "> 100 µM (inactive)"}, {"measurement": "GI50", "setting": "[8]", "value": "> 100 µM (inactive)"}, {"measurement": "GI50", "setting": "[9]", "value": "> 100 µM (inactive)"}, {"measurement": "GI50", "setting": "[10]", "value": "> 100 µM (inactive)"}, {"measurement": "GI50", "setting": "[11]", "value": "> 100 µM (inactive)"}, {"measurement": "GI50", "setting": "[12]", "value": "> 100 µM (inactive)"}, {"measurement": "GI50", "setting": "[13]", "value": "> 100 µM (inactive)"}, {"measurement": "GI50", "setting": "[14]", "value": "> 100", "unit": "µM"}, {"measurement": "GI50", "setting": "[15]", "value": "> 100 µM (inactive)"}, {"measurement": "GI50", "setting": "[16]", "value": "> 100 µM (inactive)"}, {"measurement": "GI50", "setting": "[17]", "value": "> 100 µM (inactive)"}, {"measurement": "GI50", "setting": "[18]", "value": "> 100 µM (inactive)"}, {"measurement": "GI50", "setting": "[19]", "value": "> 100 µM (inactive)"}, {"measurement": "GI50", "setting": "[20]", "value": "> 100 µM (inactive)"}]}, {"smiles": "Cc1cccc2c(=O)c3c(O)cc4c(c3n(C)c12)C=CC(C)(C)O4", "values": [{"measurement": "GI50", "setting": "[1]", "value": "29.5 µM (inactive)"}, {"measurement": "GI50", "setting": "[2]", "value": "4.63 µM (inactive)"}, {"measurement": "GI50", "setting": "[3]", "value": "25.6 µM (inactive)"}, {"measurement": "GI50", "setting": "[4]", "value": "70.5 µM (inactive)"}, {"measurement": "GI50", "setting": "[5]", "value": "> 100 µM (inactive)"}, {"measurement": "GI50", "setting": "[6]", "value": "97.5 µM (inactive)"}, {"measurement": "GI50", "setting": "[7]", "value": "> 100 µM (inactive)"}, {"measurement": "GI50", "setting": "[8]", "value": "87.5 µM (inactive)"}, {"measurement": "GI50", "setting": "[9]", "value": "31.2 µM (inactive)"}, {"measurement": "GI50", "setting": "[10]", "value": "11.2 µM (inactive)"}, {"measurement": "GI50", "setting": "[11]", "value": "> 100 µM (inactive)"}, {"measurement": "GI50", "setting": "[12]", "value": "9.02 µM (inactive)"}, {"measurement": "GI50", "setting": "[13]", "value": "> 100 µM (inactive)"}, {"measurement": "GI50", "setting": "[14]", "value": 18.7, "unit": "µM"}, {"measurement": "GI50", "setting": "[15]", "value": "29.9 µM (inactive)"}, {"measurement": "GI50", "setting": "[16]", "value": "58.9 µM (inactive)"}, {"measurement": "GI50", "setting": "[17]", "value": "59.3 µM (inactive)"}, {"measurement": "GI50", "setting": "[18]", "value": "33 µM (inactive)"}, {"measurement": "GI50", "setting": "[19]", "value": "40.3 µM (inactive)"}, {"measurement": "GI50", "setting": "[20]", "value": "> 100 µM (inactive)"}]}, {"smiles": "CCOC(=O)C(=Cc1ccccc1Br)C(=O)OCC", "values": [{"measurement": "GI50", "setting": "[1]", "value": "3.51 µM (inactive)"}, {"measurement": "GI50", "setting": "[2]", "value": "3.36 µM (inactive)"}, {"measurement": "GI50", "setting": "[3]", "value": "4.18 µM (inactive)"}, {"measurement": "GI50", "setting": "[4]", "value": "1.69 µM (inactive)"}, {"measurement": "GI50", "setting": "[5]", "value": "1.97 µM (inactive)"}, {"measurement": "GI50", "setting": "[6]", "value": "5.58 µM (inactive)"}, {"measurement": "GI50", "setting": "[7]", "value": "2.38 µM (inactive)"}, {"measurement": "GI50", "setting": "[8]", "value": "2.34 µM (inactive)"}, {"measurement": "GI50", "setting": "[9]", "value": "3.26 µM (inactive)"}, {"measurement": "GI50", "setting": "[10]", "value": "0.656 µM (active)"}, {"measurement": "GI50", "setting": "[11]", "value": "2.78 µM (inactive)"}, {"measurement": "GI50", "setting": "[12]", "value": "2.23 µM (inactive)"}, {"measurement": "GI50", "setting": "[13]", "value": "2.14 µM (inactive)"}, {"measurement": "GI50", "setting": "[14]", "value": 1.67, "unit": "µM"}, {"measurement": "GI50", "setting": "[15]", "value": "1.85 µM (inactive)"}, {"measurement": "GI50", "setting": "[16]", "value": "2.95 µM (inactive)"}, {"measurement": "GI50", "setting": "[17]", "value": "6.5 µM (inactive)"}, {"measurement": "GI50", "setting": "[18]", "value": "2.48 µM (inactive)"}, {"measurement": "GI50", "setting": "[19]", "value": "0.695 µM (active)"}, {"measurement": "GI50", "setting": "[20]", "value": "1.96 µM (inactive)"}]}, {"smiles": "Nc1nc2c(ncn2Cc2ccccc2CO)c(=O)[nH]1", "values": [{"measurement": "GI50", "setting": "[1]", "value": "> 100 µM (inactive)"}, {"measurement": "GI50", "setting": "[2]", "value": "> 100 µM (inactive)"}, {"measurement": "GI50", "setting": "[3]", "value": "> 100 µM (inactive)"}, {"measurement": "GI50", "setting": "[4]", "value": "> 100 µM (inactive)"}, {"measurement": "GI50", "setting": "[5]", "value": "> 100 µM (inactive)"}, {"measurement": "GI50", "setting": "[6]", "value": "> 100 µM (inactive)"}, {"measurement": "GI50", "setting": "[7]", "value": "> 100 µM (inactive)"}, {"measurement": "GI50", "setting": "[8]", "value": "> 100 µM (inactive)"}, {"measurement": "GI50", "setting": "[9]", "value": "> 100 µM (inactive)"}, {"measurement": "GI50", "setting": "[10]", "value": "> 100 µM (inactive)"}, {"measurement": "GI50", "setting": "[11]", "value": "> 100 µM (inactive)"}, {"measurement": "GI50", "setting": "[12]", "value": "> 100 µM (inactive)"}, {"measurement": "GI50", "setting": "[13]", "value": "> 100 µM (inactive)"}, {"measurement": "GI50", "setting": "[14]", "value": "> 100", "unit": "µM"}, {"measurement": "GI50", "setting": "[15]", "value": "> 100 µM (inactive)"}, {"measurement": "GI50", "setting": "[16]", "value": "> 100 µM (inactive)"}, {"measurement": "GI50", "setting": "[17]", "value": "> 100 µM (inactive)"}, {"measurement": "GI50", "setting": "[18]", "value": "> 100 µM (inactive)"}, {"measurement": "GI50", "setting": "[19]", "value": "> 100 µM (inactive)"}, {"measurement": "GI50", "setting": "[20]", "value": "> 100 µM (inactive)"}]}]}
